Assay results as given in US20240391882A1 (Mirati Therapeutics, Inc., priority 2023, published 2024).

What was measured:
Assay type in all cases: cell-based
[1] = system: pAKT in T47D (PI3Kα H1047R mutant) cells; assay: Inhibition of pAKT (alphaLISA Surefire Ultra AKT 1/2/3 pS473) in T47D cells; conditions: Homo sapiens; T47D (PI3Kα H1047R mutant) cells, 24 hr compound incubation, alphaLISA pS473; read-out: T47D (H1047R) pAKT 24 hr (IC50)
Summary of the method: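 Cells in HBSS were dosed from 10.4 μm (1:4 serial dilution, 10 concentrations) and incubated about 24 hours at 37° C, then lysed. pAKT S473 measured by alphaLISA after overnight bead incubation. Signal normalised to alpelisib (3.125 μm) and DMSO controls; IC50 from four-parameter fit.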

[2] = system: T47D (PI3Kα H1047R mutant) cells; assay: Cell viability (CellTiter-Glo 2.0) in T47D cells; conditions: Homo sapiens, T47D, 72 h, approximately 72 hours
Summary of the method: (§1)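 SKBR3 or T47D cells, 1000 per well, were seeded overnight and then exposed ~72 h at 37° C to 10 concentrations of compound, 1:4 dilutions from 10 μm. Viability read by CellTiter-Glo luminescence as percent of vehicle; IC50 from four-parameter variable-slope fit.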

[3] = system: SKBR3 (PI3Kα wild type) cells; assay: Cell viability (CellTiter-Glo 2.0) in SKBR3 cells; conditions: Homo sapiens, SK-BR-3; SKBR3 (PI3Kα wild type) cells, approximately 72 hours, CellTiter-Glo 2.0; read-out: SKBR3 (WT) Viability IC50
Summary of the method: as §1

| SMILES | IC50 [1] [µM] | IC50 [2] [µM] | IC50 [3] [µM] |
| --- | --- | --- | --- |
| Cc1cc([C@@H](C)Nc2ccc(Cl)nc2C(=O)O)c2nc(NCC3CC3)c(C#N)nc2c1 [Example 25, (R)-6-chloro-3-((1-(2-cyano-3-((cyclopropylmethyl)amino)-7-methylquinoxalin-5-yl)ethyl)amino)picolinic acid] | 0.0012 | 0.175 | > 10 |
| C[C@@H](Nc1ccc(Cl)nc1C(=O)O)c1cc(F)cc2nc(C#N)c(N3CCC(F)(F)CC3)nc12 [Example 26, (R)-6-chloro-3-((1-(2-cyano-3-(4,4-difluoropiperidin-1-yl)-7-fluoroquinoxalin-5-yl)ethyl)amino)picolinic acid] | 0.0018 | 0.0515 | 9.8 |
| C[C@H](Nc1ccccc1C(=O)O)c1cc(C#N)cc2nc(C#N)c(N3CCC(F)(F)CC3)nc12 [Example 27, (S)-2-((1-(2,7-dicyano-3-(4,4-difluoropiperidin-1-yl)quinoxalin-5-yl)ethyl)amino)benzoic acid] | 1.14 | > 10 | > 10 |
| C[C@@H](Nc1ccccc1C(=O)O)c1cc(C#N)cc2nc(C#N)c(N3CCC(F)(F)CC3)nc12 [Example 28, (R)-2-((1-(2,7-dicyano-3-(4,4-difluoropiperidin-1-yl)quinoxalin-5-yl)ethyl)amino)benzoic acid] | 0.0483 | 2.14 | > 10 |
| C[C@H](Nc1ccccc1C(=O)O)c1cc(Cl)cc2nc(C#N)c(N3CCC(F)(F)CC3)nc12 [Example 29, (S)-2-((1-(7-chloro-2-cyano-3-(4,4-difluoropiperidin-1-yl)quinoxalin-5-yl)ethyl)amino)benzoic acid] | 0.117 | 3.48 | > 10 |
| C[C@@H](Nc1ccccc1C(=O)O)c1cc(Cl)cc2nc(C#N)c(N3CCC(F)(F)CC3)nc12 [Example 30, (R)-2-((1-(7-chloro-2-cyano-3-(4,4-difluoropiperidin-1-yl)quinoxalin-5-yl)ethyl)amino)benzoic acid] | 0.0047 | 0.183 | > 10 |
| C[C@H](Nc1ccccc1C(=O)O)c1cc(F)cc2nc(C#N)c(N3CCC(F)(F)CC3)nc12 [Example 31, (S)-2-((1-(2-cyano-3-(4,4-difluoropiperidin-1-yl)-7-fluoroquinoxalin-5-yl)ethyl)amino)benzoic acid] | 0.561 | > 10 | > 10 |
| C[C@@H](Nc1ccccc1C(=O)O)c1cc(F)cc2nc(C#N)c(N3CCC(F)(F)CC3)nc12 [Example 32, (R)-2-((1-(2-cyano-3-(4,4-difluoropiperidin-1-yl)-7-fluoroquinoxalin-5-yl)ethyl)amino)benzoic acid] | 0.0102 | 0.265 | > 10 |
| C[C@@H](Nc1ccc(Cl)nc1C(=O)O)c1cc(C2CC2)cc2nc(C#N)c(N3CCC(F)(F)CC3)nc12 [Example 33, (R)-6-chloro-3-((1-(2-cyano-7-cyclopropyl-3-(4,4-difluoropiperidin-1-yl)quinoxalin-5-yl)ethyl)amino)picolinic acid] | 0.0043 | 0.0914 | 7.43 |
| C[C@@H](Nc1ccc(Cl)nc1C(=O)O)c1cc(Cl)cc2nc(C#N)c(N3CCC(F)(F)CC3)nc12 [Example 34, (R)-6-chloro-3-((1-(7-chloro-2-cyano-3-(4,4-difluoropiperidin-1-yl)quinoxalin-5-yl)ethyl)amino)picolinic acid] | 0.0062 | 0.0482 | > 10 |
| Cc1cc([C@@H](C)Nc2ccc(Cl)nc2C(=O)O)c2nc(N3CCC(F)(F)CC3)c(C)nc2c1 [Example 35, (R)-6-chloro-3-((1-(3-(4,4-difluoropiperidin-1-yl)-2,7-dimethylquinoxalin-5-yl)ethyl)amino)picolinic acid] | 0.0031 | 0.166 | 8.29 |
| Cc1cc([C@@H](C)Nc2ccccc2C(=O)O)c2nc(N3CCC(F)(F)CC3)c(C)nc2c1 [Example 36, (R)-2-((1-(3-(4,4-difluoropiperidin-1-yl)-2,7-dimethylquinoxalin-5-yl)ethyl)amino)benzoic acid] | 0.0937 | 1.17 | > 10 |
| C[C@@H](Nc1ccccc1C(=O)O)c1cc(C2CC2)cc2nc(C#N)c(N3CCC(F)(F)CC3)nc12 [Example 37, (R)-2-((1-(2-cyano-7-cyclopropyl-3-(4,4-difluoropiperidin-1-yl)quinoxalin-5-yl)ethyl)amino)benzoic acid] | 0.0946 | 0.588 | > 10 |
| Cc1cc([C@@H](C)Nc2ccc(Cl)nc2C(=O)O)c2nc(C3CC3)c(C#N)nc2c1 [Example 44, (R)-6-chloro-3-((1-(2-cyano-3-cyclopropyl-7-methylquinoxalin-5-yl)ethyl)amino)picolinic acid] | 0.002 | 0.157 | > 10 |
| Cc1cc([C@@H](C)Nc2ccc(Cl)nc2C(=O)O)c2nc(N3CCCC(C(F)(F)F)C3)c(C#N)nc2c1 (stereo partly drawn) [Example 45, 6-chloro-3-(((1R)-1-(2-cyano-7-methyl-3-(3-(trifluoromethyl)piperidin-1-yl)quinoxalin-5-yl)ethyl)amino)picolinic acid] | 0.0068 | 0.115 | > 10 |
| Cc1cc([C@@H](C)Nc2ccccc2C(=O)O)c2nc(N3CC(C)(C)C3)c(C#N)nc2c1 [Example 55, (R)-2-((1-(2-cyano-3-(3,3-dimethylazetidin-1-yl)-7-methylquinoxalin-5-yl)ethyl)amino)benzoic acid] | 0.0216 | 0.422 | > 10 |
| Cc1cc([C@@H](C)Nc2ccc(Cl)nc2C(=O)O)c2nc(N3CC(C)(C)C3)c(C#N)nc2c1 [Example 56, (R)-6-chloro-3-((1-(2-cyano-3-(3,3-dimethylazetidin-1-yl)-7-methylquinoxalin-5-yl)ethyl)amino)picolinic acid] | 0.0047 | 0.128 | > 10 |
| Cc1cc([C@@H](C)Nc2ccccc2C(=O)O)c2nc(N3CCOCC3)c(C#N)nc2c1 [Example 57, (R)-2-((1-(2-cyano-7-methyl-3-morpholinoquinoxalin-5-yl)ethyl)amino)benzoic acid] | 0.014 | 0.165 | > 10 |
| Cc1cc([C@@H](C)Nc2ccc(Cl)nc2C(=O)O)c2nc(N3CCOCC3)c(C#N)nc2c1 [Example 58, (R)-6-chloro-3-((1-(2-cyano-7-methyl-3-morpholinoquinoxalin-5-yl)ethyl)amino)picolinic acid] | 0.0018 | 0.024 | 3.5 |
| Cc1cc([C@@H](C)Nc2ccccc2C(=O)O)c2nc(N3CCC(C)(C)CC3)c(C#N)nc2c1 [Example 61, (R)-2-((1-(2-cyano-3-(4,4-dimethylpiperidin-1-yl)-7-methylquinoxalin-5-yl)ethyl)amino)benzoic acid] | 0.0386 | 0.513 | > 10 |
| Cc1cc([C@@H](C)Nc2ccc(Cl)nc2C(=O)O)c2nc(N3CCC(C)(C)CC3)c(C#N)nc2c1 [Example 62, (R)-6-chloro-3-((1-(2-cyano-3-(4,4-dimethylpiperidin-1-yl)-7-methylquinoxalin-5-yl)ethyl)amino)picolinic acid] | 0.0079 | 0.22 | 7.08 |
